Experiments:
[1] = target: Human sodium/glucose co-transporter type 1 (SGLT1) (Homo sapiens (Human), UniProt P13866); experiment: In vitro human SGLT1 inhibition assay (14C-AMG uptake); type: cell-based; conditions: HEK293 cells expressing human HA-SGLT1, 14C-AMG uptake
Outline: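 HEK293 cells stably expressing human HA-tagged SGLT1 (30,000/well, overnight) were washed into Na+-containing uptake buffer (140 mM NaCl, HEPES/Tris, 1 mg/mL BSA, pH 7.3). Cells then received compound plus 100 nCi 14C-AMG for 1–2 h at 37 °C; after washing, AMG uptake was quantified by scintillation counting.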

KKay mice [2] = experiment: HbA1c in KKAy diabetic mice; type: in vivo; conditions: 1.5 and 4.5 mg/kg once daily, day 26
Text: (§1) Twelve week-old male KKay mice were purchased from The Jackson Laboratory (Bar Harbor, Me.). They were switched to 45% high fat diet (HFD; diet D12451i, Research Diets) and housed individually for one week before study. The mice were randomized into the following groups by their HbA1c levels and body weights:
(§2) Mice received either vehicle or Compound C once daily at […] for 36 days. Body weight and food consumption were monitored daily. On day 22, blood was collected before glucose challenge for baseline glucose. Mice were then given a bolus dose of glucose (2 g/kg, 10 mL/kg). Blood was collected at 30, 60 and 120 minutes after glucose challenge to estimate the glucose excursion. Blood glucose was analyzed by Cobas Integra 400 Autoanalyzer (Roche Diagnostics).
On day 26 after dosing, blood was collected for HbA1c. HbA1c was measured using a meter manufactured by Bayer according to the protocol recommended by Bayer.

[3] = target: Human sodium/glucose co-transporter type 2 (SGLT2) (Homo sapiens (Human), UniProt P31639); experiment: In vitro human SGLT2 inhibition assay (14C-AMG uptake); type: cell-based; conditions: HEK293 cells expressing human HA-SGLT2, 14C-AMG uptake
Sequence of Human sodium/glucose co-transporter type 2 (SGLT2) (P31639 whole entry): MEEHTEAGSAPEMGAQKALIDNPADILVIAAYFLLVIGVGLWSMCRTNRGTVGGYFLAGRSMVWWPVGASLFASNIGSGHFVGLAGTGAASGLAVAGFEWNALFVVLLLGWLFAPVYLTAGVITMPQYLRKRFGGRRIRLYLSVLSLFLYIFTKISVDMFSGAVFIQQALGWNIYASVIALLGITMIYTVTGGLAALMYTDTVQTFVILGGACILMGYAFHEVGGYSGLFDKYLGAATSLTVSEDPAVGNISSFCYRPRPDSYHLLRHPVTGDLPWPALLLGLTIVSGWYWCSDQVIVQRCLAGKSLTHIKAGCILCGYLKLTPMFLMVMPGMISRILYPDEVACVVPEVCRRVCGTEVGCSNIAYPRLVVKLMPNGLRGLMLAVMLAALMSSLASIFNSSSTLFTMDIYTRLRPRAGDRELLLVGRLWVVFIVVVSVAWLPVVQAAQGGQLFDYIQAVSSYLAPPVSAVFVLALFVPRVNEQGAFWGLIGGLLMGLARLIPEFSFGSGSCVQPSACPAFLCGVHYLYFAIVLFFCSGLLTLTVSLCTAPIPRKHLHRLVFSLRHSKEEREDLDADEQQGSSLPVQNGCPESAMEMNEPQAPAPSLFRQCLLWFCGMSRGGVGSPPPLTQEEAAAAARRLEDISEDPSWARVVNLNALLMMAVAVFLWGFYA
Outline: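 HEK293 cells stably expressing HA-tagged human SGLT2, seeded overnight, washed into Na+-containing HEPES/Tris uptake buffer with 1 mg/mL BSA, pH 7.3. Compound added, then 14C-AMG (100 nCi); 1-2 h at 37 °C, 5% CO2. Washed cells counted by scintillation for 14C-AMG uptake.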

KKay mice [4] = experiment: Glucose challenge in KKAy diabetic mice (glucose excursion); type: in vivo; conditions: KKay mice on 45% high fat diet, 1.5 and 4.5 mg/kg once daily, day 22, glucose bolus 2 g/kg 15 hours after dosing
Text: as §1, §2

KKay mice [5] = experiment: Postprandial tGLP-1 in KKAy diabetic mice; type: in vivo; conditions: 4.5 mpk group, day 29, 60 minutes after glucose bolus 2 g/kg
Text: as §1, §2
On day 29, the mice again received a glucose bolus (2 g/kg, 10 mL/kg). Blood was collected at 60 minutes after glucose challenge and analyzed for tGLP-1. Plasma was prepared by centrifuging blood samples at 1000 rpm for 10 minutes at 4° C. tGPL-1 was analyzed by ELISA (Glucagon-Like Peptide-1 Total ELISA Kit, catalog #EZGLP1T-36K, Millipore, St. Charles, Mo.) according to the protocol recommended by Millipore.

Sequence of Human sodium/glucose co-transporter type 1 (SGLT1) (P13866 whole entry): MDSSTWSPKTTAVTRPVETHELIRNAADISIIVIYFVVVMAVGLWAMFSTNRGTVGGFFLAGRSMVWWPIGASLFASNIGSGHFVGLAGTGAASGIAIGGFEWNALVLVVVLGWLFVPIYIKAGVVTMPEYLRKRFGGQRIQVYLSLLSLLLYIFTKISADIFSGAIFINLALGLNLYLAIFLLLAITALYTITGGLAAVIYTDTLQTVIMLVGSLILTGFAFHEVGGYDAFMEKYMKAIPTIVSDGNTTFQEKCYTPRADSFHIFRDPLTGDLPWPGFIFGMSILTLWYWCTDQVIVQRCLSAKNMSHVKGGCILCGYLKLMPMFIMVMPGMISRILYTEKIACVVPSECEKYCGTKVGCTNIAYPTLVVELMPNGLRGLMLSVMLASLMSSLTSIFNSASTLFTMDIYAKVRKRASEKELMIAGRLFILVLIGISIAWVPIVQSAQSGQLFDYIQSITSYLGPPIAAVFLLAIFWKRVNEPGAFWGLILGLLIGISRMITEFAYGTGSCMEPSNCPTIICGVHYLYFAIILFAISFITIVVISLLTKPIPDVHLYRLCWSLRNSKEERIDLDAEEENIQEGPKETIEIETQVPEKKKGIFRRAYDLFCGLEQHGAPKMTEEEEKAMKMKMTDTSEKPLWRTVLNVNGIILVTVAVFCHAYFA

SMILES	IC50 [1] [nM]	IC50 [3] [nM]	HbA1c (KKay mice [2])	glucose excursion after glucose challenge (KKay mice [4])	postprandial tGLP-1 (KKay mice [5])
CS[C@H]1O[C@@H](c2ccc(C)c(Cc3ccc(OCCCNC(C)(C)CO)cc3)c2)[C@H](O)[C@@H](O)[C@@H]1O [(2S,3R,4R,5S,6R)-2-(3-(4-(3-((1-hydroxy-2-methylpropan-2-yl)amino)propoxy)benzyl)-4-methylphenyl)-6-(methylthio)tetrahydro-2H-pyran-3,4,5-triol]	< 10	< 10	significant, dose-dependent reduction in HbA1c	dose-dependent decrease in glucose excursion	significant increase in postprandial tGLP-1
CS[C@H]1O[C@@H](c2ccc(C)c(Cc3ccc(OCCCC(=O)NC(CO)CO)cc3)c2)[C@H](O)[C@@H](O)[C@@H]1O [N-(1,3-dihydroxypropan-2-yl)-4-(4-(2-methyl-5-((2S,3R,4R,5S,6R)-3,4,5-trihydroxy-6-(methylthio)tetrahydro-2H-pyran-2-yl)benzyl)phenoxy)butanamide]	< 10	< 10			
CS[C@H]1O[C@@H](c2ccc(C)c(Cc3ccc(CCCC(=O)NC(C)(C)CO)cc3)c2)[C@H](O)[C@@H](O)[C@@H]1O [N-(1-hydroxy-2-methylpropan-2-yl)-4-(4-(2-methyl-5-((2S,3R,4R,5S,6R)-3,4,5-trihydroxy-6-(methylthio)tetrahydro-2H-pyran-2-yl)benzyl)phenyl)butanamide]	< 10	< 10			
CS[C@H]1O[C@@H](c2ccc(C)c(Cc3ccc(CCCC(=O)NC(C)(C)C(=O)NCCN(C)C)cc3)c2)[C@H](O)[C@@H](O)[C@@H]1O [N-(1-((2-(dimethylamino)ethyl)amino)-2-methyl-1-oxopropan-2-yl)-4-(4-(2-methyl-5-((2S,3R,4R,5S,6R)-3,4,5-trihydroxy-6-(methylthio)tetrahydro-2H-pyran-2-yl)benzyl)phenyl)butanamide]	< 10	< 10			

Further lines, with some results ahead:

IC50 [1] [nM]	IC50 [3] [nM]	SMILES	HbA1c (KKay mice [2])	glucose excursion after glucose challenge (KKay mice [4])	postprandial tGLP-1 (KKay mice [5])
< 100	< 10	CS[C@H]1O[C@@H](c2ccc(C)c(Cc3ccc(CCCCCNC(=O)NC(C)(C)C(N)=O)cc3)c2)[C@H](O)[C@@H](O)[C@@H]1O [2-methyl-2-(3-(5-(4-(2-methyl-5-((2S,3R,4R,5S,6R)-3,4,5-trihydroxy-6-(methylthio)tetrahydro-2H-pyran-2-yl)benzyl)phenyl)pentyl)ureido)propanamide]			
< 100	< 10	CS[C@H]1O[C@@H](c2ccc(C)c(Cc3ccc(CCCCCNC(=O)NC(C)(C)CO)cc3)c2)[C@H](O)[C@@H](O)[C@@H]1O [1-(1-hydroxy-2-methylpropan-2-yl)-3-(5-(4-(2-methyl-5-((2S,3R,4R,5S,6R)-3,4,5-trihydroxy-6-(methylthio)tetrahydro-2H-pyran-2-yl)benzyl)phenyl)pentyl)urea]			
